Measured values reported in the supplement of paper PMC10883282.
± gives the standard deviation of the averaged measurements.

Key:
Assay in all cases: relative viability vs DMSO control (72 h) (fraction); higher = more viable cells
[1] = tested on: A204
Method in brief: (§1)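 Percent growth from ATPLite readings, averaged over up to triplicate wells, was used as relative viability. Sarcoma cell lines were seeded into 384-well plates for 80–90% confluence, dosed after 24 h, and kept 72 h at 37 °C, 5% CO2. Data were rescaled to a range where 1 is full and 0 is none.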

[2] = tested on: G401
Method in brief: as §1

[3] = tested on: HS729
Method in brief: as §1

[4] = tested on: HT1080
Method in brief: as §1

[5] = tested on: KHOS-NP
Method in brief: as §1

[6] = tested on: MES-SA
Method in brief: as §1

[7] = tested on: SK-LMS-1
Method in brief: as §1

[8] = tested on: SW1353
Method in brief: as §1

[9] = tested on: SW684
Method in brief: as §1

[10] = tested on: SW872
Method in brief: as §1

[11] = tested on: SYO-1
Method in brief: as §1

[12] = tested on: VA-ES-BJ
Method in brief: as §1

COc1cc(Nc2ncc(F)c(Nc3ccc4c(n3)N(COP(=O)(O)O)C(=O)C(C)(C)O4)n2)cc(OC)c1OC [Fostamatinib]
Settings | relative viability
[1], 0.00017 µM | 1.07 ± 0.012
[1], 0.00051 µM | 1.08 ± 0.044
[1], 0.00152 µM | 1.07 ± 0.033
[1], 0.00457 µM | 1.07 ± 0.051
[1], 0.01372 µM | 1.07 ± 0.048
[1], 0.04115 µM | 1.02 ± 0.021
[1], 0.1235 µM | 0.954 ± 0.018
[1], 0.3704 µM | 0.763 ± 0.022
[1], 1.111 µM | 0.494 ± 0.048
[1], 3.333 µM | 0.236 ± 0.027
[1], 10 µM | 0.07 ± 0.0078
[2], 0.00017 µM | 0.9887 ± 0.008
[2], 0.00051 µM | 1.01 ± 0.031
[2], 0.00152 µM | 1.03 ± 0.033
[2], 0.00457 µM | 1.07 ± 0.049
[2], 0.01372 µM | 1.004 ± 0.0072
[2], 0.04115 µM | 1.05 ± 0.051
[2], 0.1235 µM | 0.986 ± 0.031
[2], 0.3704 µM | 0.962 ± 0.034
[2], 1.111 µM | 0.75 ± 0.054
[2], 3.333 µM | 0.212 ± 0.014
[2], 10 µM | 0.0346 ± 0.0027
[3], 0.00017 µM | 0.913 ± 0.037
[3], 0.00051 µM | 0.952 ± 0.011
[3], 0.00152 µM | 0.938 ± 0.066
[3], 0.00457 µM | 0.961 ± 0.039
[3], 0.01372 µM | 0.982 ± 0.043
[3], 0.04115 µM | 0.914 ± 0.042
[3], 0.1235 µM | 0.845 ± 0.051
[3], 0.3704 µM | 0.724 ± 0.037
[3], 1.111 µM | 0.726 ± 0.0082
[3], 3.333 µM | 0.519 ± 0.013
[3], 10 µM | 0.586 ± 0.015
[4], 0.00017 µM | 1.06 ± 0.032
[4], 0.00051 µM | 1.07 ± 0.045
[4], 0.00152 µM | 1.08 ± 0.02
[4], 0.00457 µM | 1.07 ± 0.021
[4], 0.01372 µM | 1.06 ± 0.03
[4], 0.04115 µM | 1.06 ± 0.037
[4], 0.1235 µM | 1.09 ± 0.022
[4], 0.3704 µM | 1.101 ± 0.0083
[4], 1.111 µM | 1.06 ± 0.023
[4], 3.333 µM | 0.937 ± 0.025
[4], 10 µM | 0.658 ± 0.029
[5], 0.00017 µM | 1.09 ± 0.026
[5], 0.00051 µM | 1.08 ± 0.035
[5], 0.00152 µM | 1.1 ± 0.013
[5], 0.00457 µM | 1.091 ± 0.0094
[5], 0.01372 µM | 1.07 ± 0.033
[5], 0.04115 µM | 1.089 ± 0.0083
[5], 0.1235 µM | 1.09 ± 0.011
[5], 0.3704 µM | 1.05 ± 0.02
[5], 1.111 µM | 0.98 ± 0.04
[5], 3.333 µM | 0.64 ± 0.014
[5], 10 µM | 0.278 ± 0.021
[6], 0.00017 µM | 0.904 ± 0.011
[6], 0.00051 µM | 0.94 ± 0.062
[6], 0.00152 µM | 0.932 ± 0.015
[6], 0.00457 µM | 0.921 ± 0.039
[6], 0.01372 µM | 0.943 ± 0.033
[6], 0.04115 µM | 0.931 ± 0.035
[6], 0.1235 µM | 0.853 ± 0.043
[6], 0.3704 µM | 0.768 ± 0.03
[6], 1.111 µM | 0.861 ± 0.03
[6], 3.333 µM | 0.332 ± 0.019
[6], 10 µM | 0.043 ± 0.00086
[7], 0.00017 µM | 1.06 ± 0.037
[7], 0.00051 µM | 1.03 ± 0.015
[7], 0.00152 µM | 1.05 ± 0.019
[7], 0.00457 µM | 1.05 ± 0.02
[7], 0.01372 µM | 1.03 ± 0.046
[7], 0.04115 µM | 1.029 ± 0.008
[7], 0.1235 µM | 0.897 ± 0.042
[7], 0.3704 µM | 0.819 ± 0.016
[7], 1.111 µM | 0.769 ± 0.045
[7], 3.333 µM | 0.618 ± 0.027
[7], 10 µM | 0.403 ± 0.024
[8], 0.00017 µM | 0.996 ± 0.017
[8], 0.00051 µM | 0.997 ± 0.017
[8], 0.00152 µM | 0.997 ± 0.016
[8], 0.00457 µM | 1.01 ± 0.007
[8], 0.01372 µM | 0.9999 ± 0.0047
[8], 0.04115 µM | 0.965 ± 0.025
[8], 0.1235 µM | 0.8997 ± 0.007
[8], 0.3704 µM | 0.773 ± 0.047
[8], 1.111 µM | 0.6 ± 0.059
[8], 3.333 µM | 0.296 ± 0.011
[8], 10 µM | 0.256 ± 0.026
[9], 0.00017 µM | 1.14 ± 0.049
[9], 0.00051 µM | 1.17 ± 0.014
[9], 0.00152 µM | 1.15 ± 0.028
[9], 0.00457 µM | 1.17 ± 0.12
[9], 0.01372 µM | 1.13 ± 0.055
[9], 0.04115 µM | 1.18 ± 0.08
[9], 0.1235 µM | 1.09 ± 0.025
[9], 0.3704 µM | 1.03 ± 0.045
[9], 1.111 µM | 0.877 ± 0.059
[9], 3.333 µM | 0.618 ± 0.027
[9], 10 µM | 0.481 ± 0.021
[10], 0.00017 µM | 1.09 ± 0.068
[10], 0.00051 µM | 1.07 ± 0.042
[10], 0.00152 µM | 1.08 ± 0.066
[10], 0.00457 µM | 1.09 ± 0.06
[10], 0.01372 µM | 1.08 ± 0.063
[10], 0.04115 µM | 1.05 ± 0.044
[10], 0.1235 µM | 0.977 ± 0.013
[10], 0.3704 µM | 0.795 ± 0.031
[10], 1.111 µM | 0.617 ± 0.025
[10], 3.333 µM | 0.267 ± 0.038
[10], 10 µM | 0.202 ± 0.0044
[11], 0.00017 µM | 0.964 ± 0.042
[11], 0.00051 µM | 0.953 ± 0.042
[11], 0.00152 µM | 0.969 ± 0.043
[11], 0.00457 µM | 0.958 ± 0.023
[11], 0.01372 µM | 0.966 ± 0.025
[11], 0.04115 µM | 0.922 ± 0.034
[11], 0.1235 µM | 0.912 ± 0.071
[11], 0.3704 µM | 0.656 ± 0.026
[11], 1.111 µM | 0.379 ± 0.013
[11], 3.333 µM | 0.22 ± 0.02
[11], 10 µM | 0.167 ± 0.012
[12], 0.00017 µM | 1.05 ± 0.045
[12], 0.00051 µM | 1.06 ± 0.037
[12], 0.00152 µM | 1.06 ± 0.012
[12], 0.00457 µM | 1.04 ± 0.027
[12], 0.01372 µM | 1.04 ± 0.021
[12], 0.04115 µM | 1.06 ± 0.043
[12], 0.1235 µM | 1.01 ± 0.026
[12], 0.3704 µM | 0.888 ± 0.04
[12], 1.111 µM | 0.727 ± 0.18
[12], 3.333 µM | 0.366 ± 0.0078
[12], 10 µM | 0.164 ± 0.025
